For orientation: IC50 means the midpoint of a concentration-inhibition curve.

This assay has as its system Phosphorylation of STAT6 in human A549 cells. Put plainly: Phosphorylated STAT6 (pSTAT6) flow cytometry assay in human A549 cells. It counts as cell-based. To be noted: read-out: STAT6 IL4 pSTAT6 assay in A549 cells: Average IC50. The text has this: Example 3. Phosphorylated STAT6 (pSTAT6) Flow Cytometry Assay in Human A549 Cells
Phosphorylation of STAT6 in human A549 cells was quantitatively measured using flow cytometry technology.
A general note: A flow cytometer gives signals particle by particle.
In the case of `COc1cc(F)cnc1N1CCN(C(=O)c2cc3c(C4CCCCN4C)cc(C4=CCCN(C(=O)CCn5ccnn5)C4)c(F)c3[nH]2)CC1` (centres unmarked) [Example I-780], the IC50 is less than 100 nM.
As for `COc1ccccc1-c1cc(C2=CCCN(C(=O)C3Cc4ccccc4CN3C=O)C2)cc2cc(C(=O)N(C)C)oc12` (centres unmarked) [Example I-803, 5-(1-(2-formyl-1,2,3,4-tetrahydroisoquinoline-3-carbonyl)-1,2,5,6-tetrahydropyridin-3-yl)-7-(2-methoxyphenyl)-N,N-dimethylbenzofuran-2-carboxamide], the figure is 10000 to 100000 nM; as for `COc1cc(C)ncc1-c1cc(C2=CCCN(C(=O)CCn3ccnn3)C2)c(F)c2[nH]c(C(=O)N3CCN(c4ncc(F)cc4OC)CC3)cc12` [Example I-667], greater than 100000 nM.
With `COC(=O)c1cc(N2CCN(C(=O)c3cc4c(-c5ccccc5OC)cc(C5=CCCN(C(=O)CCn6ccnn6)C5)c(F)c4[nH]3)CC2)cn1C` [Example I-1004], the IC50 is less than 100 nM.
For `COc1ccccc1-c1cc(C2=CCCN(C(=O)CCn3ccnn3)C2)c(F)c2[nH]c(C(=O)N3CCOCC3)cc12` [Example I-985], the IC50 is less than 100 nM.
As for `CCCN(C)C(=O)c1cc2cc(C3=CCCN(C(=O)CCn4ccnn4)C3)ccc2o1` [Example I-817], the IC50 fell in the range of 100 to 1000 nM.
For the molecule `COc1ccccc1-c1cc(C2=CCCN(C(=O)CCn3ccnn3)C2)c(F)c2[nH]c(C(=O)N3CCN(c4nccc(C)c4OC)CC3)cc12` [Example I-415], the IC50 is less than 100 nM.
Regarding `COc1cc(F)cnc1N1CCN(C(=O)c2cc3c(-c4c(F)ccc5ccc(C)nc45)cc(C4=CCCN(C(=O)CCn5ccnn5)C4)c(F)c3[nH]2)CC1` [Example I-631], the IC50 was less than 100 nM.
For `CCOc1c(F)cccc1-c1cc(C2=CCCN(C(=O)CCn3ccnn3)C2)c(F)c2[nH]c(C(=O)N3CCN(c4ncc(F)cc4OC)CC3)cc12` [Example I-643], the IC50 was less than 100 nM.
`CC(=O)N1CCC=C(c2cc(-c3cnc4[nH]cc(C)c4c3)c3cc(C(=O)N(C)C)[nH]c3c2F)C1` [Example I-897]: the IC50 is 100 to 1000 nM.
With `COc1ccccc1-c1cc(C2=CCCN(C(=O)CCn3ccnn3)C2)c(F)c2[nH]c(C(=O)N3CCN(c4ncnc5ncn(C)c45)CC3)cc12` [Example I-920], the IC50 is less than 100 nM.
In the case of `COc1ccncc1-c1cc(C2=CCCN(C(=O)CCn3ccnn3)C2)c(F)c2[nH]c(C(=O)N3CCN(C4CCCCC4)CC3)cc12` [Example I-1149], the IC50 is less than 100 nM.
Take `COc1cc(F)ccc1-c1cc(C2=CCCN(C(=O)CCn3ccnn3)C2)c(F)c2[nH]c(C(=O)N3CCN(C4CC4)CC3)cc12` [Example I-588]: the IC50 is less than 100 nM.
In the case of `COc1ccncc1-c1cc(C2=CCCN(C(=O)CCn3ccnn3)C2)c(F)c2[nH]c(C(=O)N3CCN(c4ccc(C5CC5)cc4OC)CC3)cc12` [Example I-481], the IC50 is less than 100 nM.
For `COc1ccccc1-c1cc(C2=CCCN(C(=O)CCn3ccnn3)C2)c(F)c2[nH]c(C(=O)N3CCN(c4ccccc4C)CC3)cc12` [Example I-421], the half-inhibitory concentration (IC50) is less than 100 nM.
Turning to `CCOc1ccncc1-c1cc(C2=CCCN(C(=O)CCn3ccnn3)C2)c(F)c2[nH]c(C(=O)N3CCN(c4ccccc4OC)CC3)cc12` [Example I-406], the IC50 was greater than 100000 nM.
Take `COc1ccccc1-c1cc(C2=CCCN(C(=O)CCn3ccnn3)C2)cc2cc(C(=O)N(C)C)oc12` [Example I-1103]: the IC50 is less than 100 nM.
For `COc1ccccc1-c1cc(C2=CCCN(C(=O)CCn3ccnn3)C2)c(F)c2[nH]c(C(=O)N3CCN(c4cc(OC)c5ccnn5c4)CC3)cc12` [Example I-917], the IC50 is less than 100 nM.
As for `COc1cccnc1N1CCN(C(=O)c2cc3c(C4CCN(C)C4)cc(C4=CCCN(C(=O)CCn5ccnn5)C4)c(F)c3[nH]2)CC1` (centres unmarked) [Example I-585], the half-maximal inhibitory concentration (IC50) was less than 100 nM.
With `COc1ccccc1N1CCN(C(=O)c2cc3c(-c4cnc5ccccc5c4OC)cc(C4=CCCN(C(=O)CCn5ccnn5)C4)c(F)c3[nH]2)CC1` [Example I-448], the IC50 was less than 100 nM.
For the molecule `O=C(CCn1ccnn1)N1CCC=C(c2cc(-c3ccccc3OC3CC3)c3cc(C(=O)N4CCN(c5ncccc5OC5CC5)CC4)[nH]c3c2F)C1` [Example I-477], the IC50 was less than 100 nM.
Take `CCOc1ccncc1-c1cc(C2=CCCN(C(=O)CCn3ccnn3)C2)c(F)c2[nH]c(C(=O)N3CCN(c4ncncc4OC)CC3)cc12` [Example I-1108]: the IC50 was less than 100 nM.
As for `COc1cc(F)ccc1-c1cc(C2=CCCN(C(=O)CCn3ccnn3)C2)c(F)c2[nH]c(C(=O)N3CCN(c4ccc(F)c(OC)n4)CC3)cc12` [Example I-1107], the IC50 was 100 to 1000 nM.
As to `CCCN1CCN(C(=O)c2cc3c(-c4ccccc4OC)cc(C4=CCCN(C(=O)CCn5ccnn5)C4)c(F)c3[nH]2)C[C@@H]1C` [Example I-997], the IC50 is less than 100 nM.
Turning to `COc1ccccc1-c1cc(C2=CCCN(C(=O)CCn3ccnn3)C2)c(F)c2[nH]c(C(=O)N3CCN(c4ccc5n[nH]cc5c4)CC3)cc12` [Example I-859], the IC50 was less than 100 nM.
Turning to `COc1ccccc1-c1cc(C2=CCCN(C(=O)CCn3ccnn3)C2)c(F)c2[nH]c(C(=O)N3CCN(c4cc(C#N)cc5[nH]ccc45)CC3)cc12` [Example I-771], the IC50 was less than 100 nM.
For `COc1ccccc1-c1cc(C2=CCCN(C(=O)CCn3ccnn3)C2)c(F)c2[nH]c(C(=O)N3CC4CCN(Cc5ccccc5)C4C3)cc12` (centres unmarked) [Example I-987], the IC50 was 1000 to 10000 nM.
For the molecule `COc1ccccc1-c1cc(C2=CCCN(C(=O)CCn3ccnn3)C2)c(F)c2[nH]c(C(=O)N3CCN(c4cnn5c4CCC5)CC3)cc12` [Example I-1013], the half-inhibitory concentration (IC50) was less than 100 nM.
For `COc1ccccc1-c1cc(C2=CCCN(C(=O)CCn3ccnn3)C2)c(F)c2[nH]c(C(=O)N3CCN(c4cnc(SC)n5cnnc45)CC3)cc12` [Example I-910], the IC50 is less than 100 nM.
Turning to `COc1cc(F)cnc1N1CCN(C(=O)c2cc3c(/C=C/CCl)cc(C4=CCCN(C(=O)CCn5ccnn5)C4)c(F)c3[nH]2)CC1` [Example I-1162], the IC50 fell in the range of 1000 to 10000 nM.
In the case of `COc1ccccc1-c1cc(C2=CCCN(C(=O)CCn3ccnn3)C2)c(F)c2[nH]c(C(=O)N3CCN(c4cc(OC)c5c(c4)nnn5C)CC3)cc12` [Example I-962], the half-maximal inhibitory concentration (IC50) is less than 100 nM.
In the case of `COc1cc(F)cnc1N1CCN(C(=O)c2cc3c(-c4cc(C5(C#N)CC5)ccc4F)cc(C4=CCCN(C(=O)CCn5ccnn5)C4)c(F)c3[nH]2)CC1` [Example I-650], the IC50 is less than 100 nM.
For `COc1cc(F)ccc1-c1cc(C2=CCCN(C(=O)CCn3ccnn3)C2)c(F)c2[nH]c(C(=O)N3CCN(c4ncc(Cl)cc4OC)CC3)cc12` [Example I-459], the IC50 is less than 100 nM.
Regarding `CCOc1ccncc1-c1cc(C2=CCCN(C(=O)CCn3ccnn3)C2)c(F)c2[nH]c(C(=O)N3CCN(c4cnc(C)nc4OC)CC3)cc12` [Example I-1036], the IC50 is less than 100 nM.
As to `CCc1cc(C)ncc1-c1cc(C2=CCCN(C(=O)CCn3ccnn3)C2)c(F)c2[nH]c(C(=O)N3CCN(c4nc(C)c(F)cc4OC)CC3)cc12` [Example I-737], the IC50 was less than 100 nM.
As for “2-(3-(1-(cyclopropylmethyl)-7-(2-ethyl-6-methylpyridin-3-yl)-5-(4-(5-fluoro-3-methoxypyridin-2-yl)piperazine-1-carbonyl)-1H-indol-2-yl)-5,6-dihydropyridin-1(2H)-yl)-2-oxoacetic acid [Example I-1228]”, the figure is less than 100 nM; as for `CNc1ccc(-c2cc([C@H]3CCCN(C(=O)CCn4ccnn4)C3)cc3[nH]c(C(=O)N(C)C)cc23)c(OC)c1` (single isomer, unassigned) [Example I-1194], less than 100 nM.
In the case of `COc1cc(F)cnc1N1CCN(C(=O)c2cc3c(-c4cnn(-c5ccccc5)c4)cc(C4=CCCN(C(=O)CCn5ccnn5)C4)c(F)c3[nH]2)CC1` [Example I-671] it was 100 to 1000 nM.
As for `COc1ccncc1-c1cc(C2=CCCN(C(=O)CCn3ccnn3)C2)c(F)c2[nH]c(C(=O)N3CCN(c4cccc(F)c4OC)CC3)cc12` [Example I-563], the IC50 was less than 100 nM.
With `COc1cnc(N2CCN(C(=O)c3cc4c(-c5ccccc5OC)cc(C5=CCCN(C(=O)CCn6ccnn6)C5)c(F)c4[nH]3)CC2)c(OC)c1` [Example I-352], the half-maximal inhibitory concentration (IC50) was less than 100 nM.
In the case of `COc1cc2ncnc(N3CCN(C(=O)c4cc5c(-c6ccccc6OC)cc(C6=CCCN(C(=O)CCn7ccnn7)C6)c(F)c5[nH]4)CC3)c2cc1O` [Example I-955] it was less than 100 nM; in that of `COc1cc(Cl)cnc1N1CCN(C(=O)c2cc3c(-c4cc(F)cc(F)c4OC)cc(C4=CCCN(C(=O)CCn5ccnn5)C4)c(F)c3[nH]2)CC1` [Example I-462], 100 to 1000 nM.
Take `CCn1ncc2c1CN(C(=O)c1cc3c(-c4ccc(C5CC5)nc4C)cc(C4=CCCN(C(=O)CCn5ccnn5)C4)c(F)c3[nH]1)C2` [Example I-762]: the IC50 is greater than 100000 nM.
As for `COc1ccccc1-c1cc(C2=CCCN(C(=O)CCn3ccnn3)C2)c(F)c2[nH]c(C(=O)N3CCN(c4cc(C#N)ccn4)CC3)cc12` [Example I-875], the figure is less than 100 nM; as for `COc1ccccc1-c1cc(C2=CCCN(C(=O)CCn3ccnn3)C2)c(F)c2[nH]c(C(=O)N3CCN(c4cc(F)cc(F)c4OC)CC3)cc12` [Example I-357], less than 100 nM.
In the case of `COc1cc(F)cnc1N1CCN(C(=O)c2cc3c(-c4ccc(=O)n(Cc5ccccc5)c4)cc(C4=CCCN(C(=O)CCn5ccnn5)C4)c(F)c3[nH]2)CC1` [Example I-1136] it was less than 100 nM; in that of `COc1ccccc1-c1cc(C2=CCCN(C(=O)CCn3ccnn3)C2)c(F)c2[nH]c(C(=O)N3CCN(c4cn(C)c(=O)n(C)c4=O)CC3)cc12` [Example I-949], less than 100 nM.
`COc1cc(F)cnc1N1CCN(C(=O)c2cc3c(-c4cccc(CO)c4C)cc(C4=CCCN(C(=O)CCn5ccnn5)C4)c(F)c3[nH]2)CC1` [Example I-616]: the IC50 was greater than 100000 nM.
As for `COc1ccc(-c2cc(C3=CCCN(C(=O)CCn4ccnn4)C3)c(F)c3[nH]c(C(=O)N4CCN(c5ncc(F)cc5OC)CC4)cc23)c(C2CC2)c1` [Example I-641], the IC50 was less than 100 nM.
Regarding `COc1cc(F)cnc1N1CCN(C(=O)c2cc3c(-c4cccc(C5(C#N)CC5)c4)cc(C4=CCCN(C(=O)CCn5ccnn5)C4)c(F)c3[nH]2)CC1` [Example I-649], the IC50 was less than 100 nM.
